Data set [1] in a line: antibacterial activity and acidic property of reduced PB-6042A: antibacterial activity. To be noted: after H2/PtO2 reduction. The class given is cell-based.
A short description of data set [2]: acidic property of reduced PB-6042A. As to conditions: after H2/PtO2 reduction.
Data set [3] concerns L. plantarum JCM1100. Nature of the data set: MIC against anaerobic bacteria. The class given is cell-based. As to conditions: Lactiplantibacillus plantarum; L. plantarum JCM1100; read-out: MIC.
For data set [4], the system named is E. coli NIHJ JC-2. Nature of the data set: MIC against aerobic bacteria. As to conditions: Escherichia coli, NIHJJC2.
The subject of data set [5] is P. aeruginosa A25619. Nature of the data set: MIC against aerobic bacteria. As to conditions: Pseudomonas aeruginosa.
Data set [6] deals with C. perfringens SAKAI. Nature of the data set: microbe, parasite or virus in culture. In kind it is cell-based. To be noted: Clostridium perfringens.
Data set [7] concerns B. melaninogenicus GAI0413. Nature of the data set: MIC against anaerobic bacteria. In kind it is cell-based. To be noted: B. melaninogenicus GAI0413; read-out: MIC.
In data set [8] the test system is B. distasonis JU-11-1. Nature of the data set: MIC against anaerobic bacteria. In kind it is cell-based. As to conditions: Parabacteroides distasonis, JU111; B. distasonis JU-11-1; read-out: MIC.
In data set [9] the test system is P. asaccharolyticus ATCC14963. Nature of the data set: MIC against anaerobic bacteria. In kind it is cell-based. To be noted: Peptoniphilus asaccharolyticus; P. asaccharolyticus ATCC14963; read-out: MIC.
Data set [10] has as its system S. constellatus ATCC27823. Nature of the data set: MIC against anaerobic bacteria. The class given is cell-based. To be noted: Streptococcus constellatus.
Data set [11] concerns P. anaerobius B-38. Nature of the data set: MIC against anaerobic bacteria. The class given is cell-based. To be noted: Peptostreptococcus anaerobius, B38.
Data set [12] can be described thus: filter paper electrophoresis and bioautography (acidic property). In kind it is physicochemical. From the text: Other physicochemical properties of PB-6042s in the form of sodium salt are listed below.
In data set [13] the test system is V. parvula ATCC10790. Nature of the data set: MIC against anaerobic bacteria. In kind it is cell-based. To be noted: Veillonella parvula.
The subject of data set [14] is B. thetaiotaomicron WAL3304. Nature of the data set: MIC against anaerobic bacteria. To be noted: Bacteroides thetaiotaomicron; B. thetaiotaomicron WAL3304; read-out: MIC. The class given is cell-based.
For data set [15], the system named is L. ruminis ATCC27780. Nature of the data set: MIC against anaerobic bacteria. In kind it is cell-based.
Data set [16] deals with B. ovatus 2505. Nature of the data set: MIC against anaerobic bacteria. The class given is cell-based. As to conditions: Bacteroides ovatus; B. ovatus 2505; read-out: MIC.
For data set [17], the system named is S. pyogenes C-203. Nature of the data set: MIC against aerobic bacteria. As to conditions: Streptococcus pyogenes, C203.
Data set [18] has as its system B. longum ATCC15707. Nature of the data set: MIC against anaerobic bacteria. The class given is cell-based. As to conditions: Bifidobacterium longum, ATCC15707.
Data set [19] has as its system C. perfringens ATCC13124. Nature of the data set: microbe, parasite or virus in culture. The class given is cell-based. As to conditions: Clostridium perfringens.
Data set [20] deals with F. varium ATCC8501. Nature of the data set: MIC against anaerobic bacteria. In kind it is cell-based. To be noted: Fusobacterium varium.
Data set [21] deals with anaerobic bacteria. Nature of the data set: antibacterial activity against anaerobic bacteria (summary). As to conditions: in words. The class given is cell-based.
Data set [22] relates to P. vulgaris CN-329. Nature of the data set: MIC against aerobic bacteria. To be noted: Proteus vulgaris, CN329.
The test system of data set [23] is B. adolescentis JCM1250. Nature of the data set: MIC against anaerobic bacteria. The class given is cell-based. To be noted: Bifidobacterium adolescentis; B. adolescentis JCM1250; read-out: MIC.
Data set [24] deals with B. fragilis ATCC25285. Nature of the data set: MIC against anaerobic bacteria. The class given is cell-based. As to conditions: Bacteroides fragilis, ATCC25285.
The test system of data set [25] is B. vulgatus ATCC29327. Nature of the data set: MIC against anaerobic bacteria. The class given is cell-based. As to conditions: Phocaeicola vulgatus; B. vulgatus ATCC29327; read-out: MIC.
Data set [26] has as its system E. limosum ATCC8486. Nature of the data set: MIC against anaerobic bacteria. In kind it is cell-based. To be noted: Eubacterium limosum, ATCC8486.
Data set [27] relates to P. micros VPI5464-1. Nature of the data set: MIC against anaerobic bacteria. The class given is cell-based. To be noted: Parvimonas micra, VPI54641.
The test system of data set [28] is K. pneumoniae SR1. Nature of the data set: MIC against aerobic bacteria. To be noted: Klebsiella pneumoniae.
Data set [29] concerns E. aerofaciens ATCC25986. Nature of the data set: MIC against anaerobic bacteria. The class given is cell-based. As to conditions: Collinsella aerofaciens; E. aerofaciens ATCC25986; read-out: MIC.
Data set [30] relates to B. fragilis GM7000. Nature of the data set: MIC against anaerobic bacteria. The class given is cell-based. As to conditions: Bacteroides fragilis; B. fragilis GM7000; read-out: MIC.
Data set [31] deals with S. aureus SR14(R). Nature of the data set: MIC against aerobic bacteria. To be noted: Staphylococcus aureus.
In data set [32] the test system is F. nucleatum ATCC25586. Nature of the data set: MIC against anaerobic bacteria. To be noted: Fusobacterium nucleatum. The class given is cell-based.
The test system of data set [33] is S. pneumoniae TYPE 1. Nature of the data set: MIC against aerobic bacteria. To be noted: Streptococcus pneumoniae, TYPE1.
The subject of data set [34] is C. difficile ATCC17857. Nature of the data set: MIC against anaerobic bacteria. The class given is cell-based. To be noted: Clostridioides difficile.
Data set [35] has as its system E. lentum II-1. Nature of the data set: MIC against anaerobic bacteria. The class given is cell-based. As to conditions: Eggerthella lenta, II1.
Data set [36] deals with F. mortiferum ATCC9817. Nature of the data set: MIC against anaerobic bacteria. In kind it is cell-based. To be noted: Fusobacterium mortiferum; F. mortiferum ATCC9817; read-out: MIC.
For data set [37], the system named is P. prevotii ATCC9321. Nature of the data set: MIC against anaerobic bacteria. The class given is cell-based. As to conditions: Anaerococcus prevotii; P. prevotii ATCC9321; read-out: MIC.
Data set [38] deals with S. aureus FDA JC-1. Nature of the data set: MIC against aerobic bacteria. To be noted: Staphylococcus aureus, FDAJC1.
Data set [39] relates to P. acens ATCC11827. Nature of the data set: MIC against anaerobic bacteria. The class given is cell-based.
Data set [40] has as its system B. bifidum JCM1122. Nature of the data set: MIC against anaerobic bacteria. To be noted: Bifidobacterium bifidum; B. bifidum JCM1122; read-out: MIC. The class given is cell-based.

This is an account of results in US5045458A, “Antibiotics PB-6042S” (Shionogi & Co., Ltd., priority 1988, dated 1991).

≈ marks a conversion by molar mass, not a printed value.

With `CCCCCCCCCC(=O)C1=C(O)C(C)OC1=O` (stereo not shown) [reduced product], the “antibacterial activity of reduced product” value in data set [1] is recorded as “maintained antibacterial activity”. Further, the “acidic property of reduced product” value in data set [2] was “maintained antibacterial activity and acidic property”.

Turning to `C=C1OC(=O)C(C(=O)CCCC/C=C\CCCCCCC)=C1O` [PB-6042D], the MIC in data set [3] is 6.25 µg/mL (≈ 19.5 µM); in data set [4] it was more than 100 µg/mL; in data set [5], more than 100 µg/mL; in [6], 3.13 µg/mL (≈ 9.77 µM); in [7], 12.5 µg/mL (≈ 39 µM); in [8] it was 12.5 µg/mL (≈ 39 µM). In addition, the MIC in data set [9] is 6.25 µg/mL (≈ 19.5 µM); in data set [10], 1.56 µg/mL (≈ 4.87 µM); in [11], 1.56 µg/mL (≈ 4.87 µM); in data set [13], more than 100 µg/mL; in data set [14] it was 6.25 µg/mL (≈ 19.5 µM); in data set [15], 3.13 µg/mL (≈ 9.77 µM). The MIC in data set [16] is 12.5 µg/mL (≈ 39 µM); in [17], 12.5 µg/mL (≈ 39 µM); in data set [18], 3.13 µg/mL (≈ 9.77 µM); in data set [19], 3.13 µg/mL (≈ 9.77 µM); in data set [20] it was more than 100 µg/mL; in data set [22], more than 100 µg/mL. Also, the MIC in data set [23] is 6.25 µg/mL (≈ 19.5 µM); in [24], 3.13 µg/mL (≈ 9.77 µM); in data set [25], 12.5 µg/mL (≈ 39 µM); in data set [26], 3.13 µg/mL (≈ 9.77 µM); in data set [27], 0.78 µg/mL (≈ 2.43 µM); in data set [28] it was more than 100 µg/mL. In addition, the MIC in [29] stood at 6.25 µg/mL (≈ 19.5 µM); in [30], 6.25 µg/mL (≈ 19.5 µM); in data set [31], 12.5 µg/mL (≈ 39 µM); in data set [32] it was 25 µg/mL (≈ 78 µM); in data set [33] it was 12.5 µg/mL (≈ 39 µM); in data set [34], 1.56 µg/mL (≈ 4.87 µM). Besides, the MIC in [35] was 3.13 µg/mL (≈ 9.77 µM); in data set [36], more than 100 µg/mL; in [37] it was 6.25 µg/mL (≈ 19.5 µM); in data set [38], more than 100 µg/mL; in data set [39] it was 1.56 µg/mL (≈ 4.87 µM); in data set [40], 6.25 µg/mL (≈ 19.5 µM). In addition, the acidic property result in data set [12] was “acidic substances”. In addition, the “growth inhibition of anaerobic bacteria” value in [21] was “inhibit the growth of anaerobic bacteria, selectively”.
